Results on 27 compounds are retold here after US11369565B2, “Amino-pyrimidine skeletal muscle modulators” (Cytokinetics, Inc., priority 2010, dated 2022).

The experiment has as its system rabbit skeletal myofibrils (approximately 90% fast fibers). The experiment in a line: Activation of fast skeletal myofibrils (PUMA coupled-enzyme ATPase assay at pCa25). It counts as biochemical. The note with it: concentration at which the compound increased the enzymatic activity by 40%; calcium at pCa25; PM12 buffer pH 6.8. The procedure: Preparation of fast skeletal myofibrils. Rabbit skeletal myofibrils were prepared based upon the method of Herrmann et al. (Biochem. 32(28):7255-7263(1993). Myofibrils were prepared from rabbit psoas muscle purchased from Pel-Freez Biologicals (Arkansas) within 2 days of ordering, stored on ice. Minced muscle was homogenized in 10 volumes of ice-cold “standard” buffer (50 mM Tris, pH 7.4, 0.1 M potassium acetate, 5 mM KCl, 2 mM DTT, 0.2 mM PMSF, 10 μM leupeptin, 5 μM pepstatin, and 0.5 mM sodium azide) containing 5 mM EDTA and 0.5% Triton X-100 using an Omni-Macro homogenizer. Myofibrils were recovered by low speed centrifugation (3000 rpm for 10 minutes) and washed 2 times in the Triton X-100 containing buffer to ensure removal of cellular membrane. Following the Triton washes, myofibrils were washed 3 times in “standard” buffer containing 2 mM magnesium acetate. A final wash in assay buffer (12 mM PIPES, pH 6.8, 60 mM KCl, 1 mM DTT) was performed and brought to 10% sucrose for flash freezing in liquid nitrogen and storage at −80° C.
Activation of Fast Skeletal Myofibrils. Fast fiber activators were identified by measuring the enzymatic activity of muscle myofibril preparations using the proprietary PUMA™ (see, e.g., U.S. Pat. Nos. 6,410,254, 6,743,599, 7,202,051, and 7,378,254) assay system. Myofibril preparations consisted of rabbit skeletal muscle (approximately 90% fast fibers) that had been mechanically homogenized and washed with a detergent (triton X-100) to remove cellular membranes. This preparation retained all of the sarcomeric components in a native conformation and the enzymatic activity was still regulated by calcium. Compounds were tested using a myofibril suspension and a level of calcium sufficient to increase enzymatic activity of the myofibrils to 25% of their maximal rate (termed pCa25). Enzymatic activity was tracked via a pyruvate kinase and lactate dehydrogenase-coupled enzyme system. This assay regenerates myosin-produced ADP into ATP by oxidizing NADH, producing an absorbance change at 340 nm. The buffering system was 12 mM Pipes, 2 mM MgCl2, 1 mM DTT at pH 6.8 (PM12 buffer).
For the compound `N#Cc1ccnc(-c2cnc(NC[C@]3(c4ncccc4F)C[C@H](F)C3)nc2)n1` [2-[2-({[3-fluoro-1-(3-fluoro(2-pyridyl))cyclobutyl]methyl}amino)pyrimidin-5-yl]pyrimidine-4-carbonitrile], the “Mean AC1.4” value is reported as “B (B=1-10 uM)”.

As for `O=C(Nc1ccon1)c1cnc(NCC2(c3ncccc3F)CCC2)nc1` [[2-({[(3-fluoro(2-pyridyl))cyclobutyl]methyl}amino)pyrimidin-5-yl]-N-isoxazol-3-ylcarboxamide], the “Mean AC1.4” value was “B (B=1-10 uM)”.

On to `NC(=O)c1cc(-c2cnc(NC3(c4ccc(F)cc4)CCC3)nc2)ccn1` [4-(2-{[(4-fluorophenyl)cyclobutyl]amino}pyrimidin-5-yl)pyridine-2-carboxamide], for which the “Mean AC1.4” value is listed as “B (B=1-10 uM)”.

As to `CC(C)(Nc1ncc(-c2cccc(C(N)=O)c2)cn1)c1ncccc1S(C)(=O)=O` [3-[2-({1-methyl-1-[3-(methylsulfonyl)(2-pyridyl)]ethyl}amino)pyrimidin-5-yl]benzamide], the “Mean AC1.4” value was “D (D=>20 uM)”.

As to `CC(C)(Nc1ncc(-c2cnc3c(c2)NC(=O)C3)cn1)c1ncccc1Cl` [6-(2-{[1-(3-chloro(2-pyridyl))-isopropyl]amino}pyrimidin-5-yl)-2-pyrrolino[3,2-b]pyridin-2-one], the “Mean AC1.4” value is on record as “D (D=>20 uM)”.

Regarding `NC(=O)c1ccn(-c2cnc(NC[C@]3(c4ncccc4F)C[C@H](F)C3)nc2)c1` [1-[2-({[3-fluoro-1-(3-fluoro(2-pyridyl))cyclobutyl]methyl}amino)pyrimidin-5-yl]pyrrole-3-carboxamide], the “Mean AC1.4” value is recorded as “A (A=<1 uM)”.

On to `CC(C)(Nc1ncc(-c2nc(C(N)=O)cs2)cn1)c1ncccc1F` [2-(2-{[1-(3-fluoro(2-pyridyl))-isopropyl]amino}pyrimidin-5-yl)-1,3-thiazole-4-carboxamide], for which the “Mean AC1.4” value is given as “D (D=>20 uM)”.

For the compound `NC(=O)c1ccc(F)c(-c2cnc(NCC3(c4ncccc4Cl)CCC3)nc2)c1` [3-[2-({[(3-chloro(2-pyridyl))cyclobutyl]methyl}amino)pyrimidin-5-yl]-4-fluorobenzamide], the “Mean AC1.4” value is listed as “A (A=<1 uM)”.

As for `CC(C)(CNc1ncc(-c2cccc(C(N)=O)c2)cn1)c1ncccc1Cl` [3-(2-{[2-(3-chloro(2-pyridyl))-2-methylpropyl]amino}pyrimidin-5-yl)benzamide], the “Mean AC1.4” value is recorded as “A (A=<1 uM)”.

Regarding `NC(=O)c1ccnc(-c2cnc(NC[C@]3(c4ncccc4F)C[C@H](F)C3)nc2)n1` [2-[2-({[3-fluoro-1-(3-fluoro(2-pyridyl))cyclobutyl]methyl}amino)pyrimidin-5-yl]pyrimidine-4-carboxamide], the “Mean AC1.4” value was “B (B=1-10 uM)”.

With `CC(C)(Nc1ncc(-c2ncc(C(N)=O)s2)cn1)c1ncccc1Cl` [2-(2-{[1-(3-chloro(2-pyridyl))-isopropyl]amino}pyrimidin-5-yl)-1,3-thiazole-5-carboxamide], the “Mean AC1.4” value is recorded as “B (B=1-10 uM)”.

Take `O=C(NCCO)c1cnc(NCC2(c3ncccc3F)CCC2)nc1` [[2-({[(3-fluoro(2-pyridyl))cyclobutyl]methyl}amino)pyrimdin-5-yl]-N-(2-hydroxyethyl)carboxamide]: the “Mean AC1.4” value is recorded as “D (D=>20 uM)”.

On to `CNC(=O)c1ccc(O)c(-c2cnc(NCC3(c4ncccc4F)CCC3)nc2)c1` [{3-[2-({[(3-fluoro(2-pyridyl))cyclobutyl]methyl}amino)pyrimidin-5-yl]-4-hydroxyphenyl}-N-methylcarboxamide], for which the “Mean AC1.4” value is given as “B (B=1-10 uM)”.

`Nc1nc(NC[C@]2(c3ncccc3F)C[C@H](F)C2)ncc1-c1ccccc1` [(4-amino-5-phenylpyrimidin-2-yl){[3-fluoro-1-(3-fluoro(2-pyridyl))cyclobutyl)]methyl} amine]: the “Mean AC1.4” value is listed as “B (B=1-10 uM)”.

For `NC(=O)c1cc(-c2cnc(NC3(c4ncccc4F)CCC3)nc2)ccn1` [4-(2-{[(3-fluoro-2-pyridyl)cyclobutyl]amino}pyrimidin-5-yl)pyridine-2-carboxamide], the “Mean AC1.4” value was “B (B=1-10 uM)”.

Consider `NC(=O)c1nc2cnc(NCC3(c4ncccc4F)CCC3)nc2s1` [5-({[(3-fluoro-2-pyridyl)cyclobutyl]methyl}amino)-1,3-thiazolo[5,4-d]pyrimidine-2-carboxamide], for which the “Mean AC1.4” value is on record as “C (C=10-20 uM)”.

Take `CC(C)(C)OC(=O)NCC(=O)NCc1cnn(-c2cnc(NC(C)(C)c3ncccc3Cl)nc2)c1` [2-[(tert-butoxy)carbonylamino]-N-{[1-(2-{[1-(3-chloro(2-pyridyl))-isopropyl]amino}pyrimidin-5-yl)pyrazol-4-yl]methyl}acetamide]: the “Mean AC1.4” value is “D (D=>20 uM)”.

For the compound `Cc1ccc(F)c([C@]2(CNc3ncc(-c4cccc(C(N)=O)c4)cn3)C[C@@H](F)C2)n1` [3-[2-({[3-fluoro-1-(3-fluoro-6-methyl(2-pyridyl))cyclobutyl]methyl}amino)pyrimidin-5-yl]benzamide], the “Mean AC1.4” value is given as “A (A=<1 uM)”.

In the case of `CC(C)(Nc1ncc(-n2ccc(C(N)=O)c2)cn1)c1ncccc1Cl` [1-(2-{[1-(3-chloro(2-pyridyl))-isopropyl]amino}pyrimidin-5-yl)pyrrole-3-carboxamide], the “Mean AC1.4” value is given as “B (B=1-10 uM)”.

Regarding `N#Cc1ccc(F)c(-c2cnc(NCC3(c4ncccc4Cl)CCC3)nc2)c1` [3-[2-({[(3-chloro(2-pyridyl))cyclobutyl]methyl}amino)pyrimidin-5-yl]-4-fluorobenzenecarbonitrile], the “Mean AC1.4” value was “A (A=<1 uM)”.

Regarding `Cc1nc(NC[C@]2(c3ncccc3F)C[C@H](F)C2)ncc1-c1ccc(CC(=O)O)cc1` [2-{4-[2-({[3-fluoro-1-(3-fluoro(2-pyridyl))cyclobutyl]methyl}amino)-4-methylpyrimidin-5-yl]phenyl}acetic acid], the “Mean AC1.4” value was “D (D=>20 uM)”.

For `CNC(=O)c1cccc(-c2cnc(NC[C@]3(c4ncccc4F)C[C@H](F)C3)nc2)c1` [{3-[2-({[3-fluoro-1-(3-fluoro(2-pyridyl))cyclobutyl]methyl}amino)pyrimidin-5-yl]phenyl}-N-methylcarboxamide], the “Mean AC1.4” value was “B (B=1-10 uM)”.

Regarding `CC(C)(CNC(=O)c1cnc(NCC(C)(C)c2ccc(F)cc2)nc1)c1ccc(F)cc1` [N-[2-(4-fluorophenyl)-2-methylpropyl](2-{[2-(4-fluorophenyl)-2-methylpropyl]amino}pyrimidin-5-yl)carboxamide], the “Mean AC1.4” value is listed as “D (D=>20 uM)”.

With `CC(C)(Nc1ncc(-c2cncc(C(N)=O)c2)cn1)c1ncccc1Cl` [5-(2-{[1-(3-chloro(2-pyridyl))-isopropyl]amino}pyrimidin-5-yl)pyridine-3-carboxamide], the “Mean AC1.4” value is listed as “B (B=1-10 uM)”.

Consider `CC(C)(CNc1ncc(-c2ccc(C(N)=O)cc2)cn1)c1ccc(F)cc1` [4-(2-{[2-(4-fluorophenyl)-2-methylpropyl]amino}pyrimidin-5-yl)benzamide], for which the “Mean AC1.4” value is listed as “B (B=1-10 uM)”.

Take `CC(C)(CNc1ncc(-c2ccc3[nH]nc(N)c3c2)cn1)c1ccc(F)cc1` [[5-(3-amino(1H-indazol-5-yl))pyrimidin-2-yl][2-(4-fluorophenyl)-2-methylpropyl]amine]: the “Mean AC1.4” value is given as “A (A=<1 uM)”.

Take `CC(=O)N1CC(NC(=O)c2ccc(F)c(-c3cnc(NC[C@]4(c5ncccc5F)C[C@H](F)C4)nc3)c2)C1` [N-(1-acetylazetidin-3-yl) {4-fluoro-3-[2-({[3-fluoro-1-(3-fluoro(2-pyridyl))cyclobutyl]methyl}aminopyrimidin-5-yl]phenyl}carboxamide]: the “Mean AC1.4” value was “B (B=1-10 uM)”.
